Reference: US12098134B2, “Benzo-heterocyclic compound and composition for preventing or treating cancer disease, containing same as active ingredient” (INDUSTRY ACADEMIC COOPERATION FOUNDATION KEIMYUNG UNIVERSITY, priority 2018, dated 2024)

Key:
[1] = tested on: breast cancer cell line MDA-MB-231; test: Anti-proliferative activity in breast cancer cell line MDA-MB-231; format: cell-based; details: MDA-MB-231 cell line
Source text: Anti-proliferative activity against breast cancer cell line MDA-MB-231 was investigated using the compounds synthesized through the above Examples 1 to 4.

[2] = tested on: human neuroblastoma cell line SH-SY5Y; test: Anti-proliferative activity in SH-SY5Y cell line; format: cell-based; details: half maximal growth inhibition concentration, after 72 hours
Protocol: Anti-proliferative activity against human neuroblastoma cell line SH-SY5Y, an in vitro model of human malignant metastatic neuroblastoma, was investigated using the compounds synthesized through the above Examples 1 to 4.
SH-SY5Y cells were cultured in DMEM (Dulbecco's Modified Eagle's Media) with L-glutamine supplemented with […] of streptomycin, 100 units/mL of penicillin and 10% fetal bovine serum (FBS). The cells were grown to confluence in a humidified atmosphere (37° C., 5% CO2).

[3] = tested on: lung cancer cell line A549; test: Anti-proliferative activity in A549 cell line; format: cell-based; details: Homo sapiens
[4] = tested on: cervical cancer cell line HeLa; test: Anti-proliferative activity in HeLa cell line; format: cell-based; details: Homo sapiens
[5] = tested on: non-small cell lung cancer cell line H1975; test: Anti-proliferative activity in H1975 cell line; format: cell-based; details: Homo sapiens, NCI-H1975
[6] = tested on: SH-SY5Y cells; test: Soft agar colony formation assay; format: cell-based, human; details: cultured 1-2 weeks
Protocol: Anchorage-independent cell growth is a characteristic of cell carcinogenesis and indicates the ability of transformed cells to grow independently of a solid surface. The soft agar colony formation assay is a widely used method to measure the capability of anchorage-independent cell growth in vitro. Thus, the suppressive effect of Compound 9b on Anchorage-independent cell growth by soft agar colony formation assay.
SH-SY5Y cells were seeded in a 6-well plate with 1.2% agar (4×10^5 cells/well) and Compound 9b was added at concentrations of 1 μM, 3 μM and 5 μM and cultured for 1-2 weeks. DMSO (0.5%) was used as a negative control. After incubation, colonies were stained using by 0.05% crystal violet for 10 minutes. The colonies were washed by 3rd distilled water and captured.

CCCn1c(-c2ccc(C(=O)NO)cc2)nc2ccccc21 [Compound 6c, N-hydroxy-4-(1-propyl-1H-benzo[d]imidazol-2-yl)benzamide]
GI50 ([1]; Homo sapiens): 44.6 µM

O=C(NO)c1cccc(-c2nc3ccccc3[nH]2)c1 [Compound 13, 3-(1H-benzo[d]amidazol-2-yl)-N-hydroxybenzamide]
GI50 [2]: > 100 µM | GI50 [1]: > 100 µM

CCn1c(-c2cccc(C(=O)NO)c2)nc2ccccc21 [Compound 14b, 3-(1-Ethyl-1H-benzo[d]imidazol-2-yl)-N-hydroxybenzamide]
GI50 ([1]; Homo sapiens): > 100 µM

CCCn1c(-c2cccc(C(=O)NO)c2)nc2ccccc21 [Compound 14c, N-hydroxy-3-(1-propyl-1H-benzo[d]imidazol-2-yl)benzamide]
GI50 ([1]; Homo sapiens): 62.1 µM

O=C(NO)c1ccc(-c2nc3ccccc3s2)cc1 [Compound 9b, 4-(benzo[d]thiazol-2-yl)-N-hydroxybenzamide]
GI50 [3]: 15.6 µM | GI50 [4]: 13.5 µM | GI50 ([1]; Homo sapiens): 3.86 µM | GI50 [5]: 3.71 µM | ability of SH-SY5Y cells to form colonies ([6]; 1 μM, 3 μM and 5 μM): decreased in a dose-dependent manner | anchorage-independent cell growth of SH-SY5Y neuroblastoma ([6]; 3 μM): almost completely inhibited

CCn1c(-c2ccc(C(=O)NO)cc2)nc2ccccc21 [Compound 6b, 4-(1-ethyl-1H-benzo[d]imidazol-2-yl)-N-hydroxybenzamide]
GI50 ([1]; Homo sapiens): 15.6 µM

Cn1c(-c2ccc(C(=O)NO)cc2)nc2ccccc21 [Compound 6a, N-hydroxy-4-(1-methyl-1H-benzo[d]imidazol-2-yl)benzamide]
GI50 ([1]; Homo sapiens): 40.3 µM

O=C(NO)c1cccc(-c2nc3ccccc3s2)c1 [Compound 17b, 3-(benzo[d]thiazol-2-yl)-N-hydroxybenzamide]
GI50 ([1]; Homo sapiens): 23.1 µM

Cn1c(-c2cccc(C(=O)NO)c2)nc2ccccc21 [Compound 14a, N-hydroxy-3-(1-methyl-1H-benzo[d]imidazol-2-yl)benzamide]
GI50 ([1]; Homo sapiens): > 100 µM

CCCCn1c(-c2cccc(C(=O)NO)c2)nc2ccccc21 [Compound 14d, 3-(1-Butyl-1H-benzo[d]imidazol-2-yl)-N-hydroxybenzamide]
GI50 ([1]; Homo sapiens): 60.8 µM

CCCCn1c(-c2ccc(C(=O)NO)cc2)nc2ccccc21 [Compound 6d, 4-(1-butyl-1H-benzo[d]imidazol-2-yl)-N-hydroxybenzamide]
GI50 ([1]; Homo sapiens): 35.5 µM

O=C(NO)c1cccc(-c2nc3ccccc3o2)c1 [Compound 17a, 3-(Benzo[d]oxazol-2-yl)-N-hydroxybenzamide]
GI50 ([1]; Homo sapiens): 47.9 µM

O=C(NO)c1ccc(-c2nc3ccccc3[nH]2)cc1 [Compound 5, 4-(1H-benzo[d]imidazol-2-yl)-N-hydroxybenzamide]
GI50 ([1]; Homo sapiens): 15.6 µM

O=C(NO)c1ccc(-c2nc3ccccc3o2)cc1 [Compound 9a, 4-(benzo[d]oxazol-2-yl)-N-hydroxybenzamide]
GI50 ([1]; Homo sapiens): 8.31 µM

O=C(CCCCCCC(=O)Nc1ccccc1)NO [SAHA, reference compound]
GI50 [2]: 2.9 µM | GI50 [1]: 3.16 µM
